Like-named read-outs stand apart in the source and are kept apart here.
How the values were obtained:
SH-SY5Y and SHEP cells = test: IGF-I stimulated motility of neuroblastoma cells on gold particle-coated coverslips; assay type: cell-based, human; conditions: 30 μM NDGA, 1 nM IGF-I, 6 h
Experimental: Measurement of cell motility. Neuroblastoma cells were plated on gold particle-coated coverslips (prepared as described in (30)) in serum-free media at a density of 25,000 cells per coverslip. The cells were incubated for 2 h to allow adhesion to the coverslip. […] 1 nM IGF-I was then added to some wells. Incubation continued for 6 h, followed by fixation with 3.5% glutaraldehyde. Coverslips were mounted on glass slides, then viewed on a Lietz Orthoplan inverted microscope attached to a Sony videoprocessor. Digital images of the tracks etched into the gold by the cells from 3 separately treated coverslips per condition were collected at 200× magnification using Adobe Photoshop software. For each condition, the areas of 120 tracks made by individual cells were measured with NIH Image 1.61 software.

IGF-1R = IGF-1R (Homo sapiens, UniProt P08069); test: Tyrosine kinase activity of partially purified IGF-1R on poly Glu4:Tyr1 (ELISA); assay type: biochemical; set-up: made in house; host or cells: CHO cells (CHOIGF-1R / CHO-IGFR), partially purified by wheat germ agglutinin chromatography
IGF-1R, sequence (P08069 31-1367): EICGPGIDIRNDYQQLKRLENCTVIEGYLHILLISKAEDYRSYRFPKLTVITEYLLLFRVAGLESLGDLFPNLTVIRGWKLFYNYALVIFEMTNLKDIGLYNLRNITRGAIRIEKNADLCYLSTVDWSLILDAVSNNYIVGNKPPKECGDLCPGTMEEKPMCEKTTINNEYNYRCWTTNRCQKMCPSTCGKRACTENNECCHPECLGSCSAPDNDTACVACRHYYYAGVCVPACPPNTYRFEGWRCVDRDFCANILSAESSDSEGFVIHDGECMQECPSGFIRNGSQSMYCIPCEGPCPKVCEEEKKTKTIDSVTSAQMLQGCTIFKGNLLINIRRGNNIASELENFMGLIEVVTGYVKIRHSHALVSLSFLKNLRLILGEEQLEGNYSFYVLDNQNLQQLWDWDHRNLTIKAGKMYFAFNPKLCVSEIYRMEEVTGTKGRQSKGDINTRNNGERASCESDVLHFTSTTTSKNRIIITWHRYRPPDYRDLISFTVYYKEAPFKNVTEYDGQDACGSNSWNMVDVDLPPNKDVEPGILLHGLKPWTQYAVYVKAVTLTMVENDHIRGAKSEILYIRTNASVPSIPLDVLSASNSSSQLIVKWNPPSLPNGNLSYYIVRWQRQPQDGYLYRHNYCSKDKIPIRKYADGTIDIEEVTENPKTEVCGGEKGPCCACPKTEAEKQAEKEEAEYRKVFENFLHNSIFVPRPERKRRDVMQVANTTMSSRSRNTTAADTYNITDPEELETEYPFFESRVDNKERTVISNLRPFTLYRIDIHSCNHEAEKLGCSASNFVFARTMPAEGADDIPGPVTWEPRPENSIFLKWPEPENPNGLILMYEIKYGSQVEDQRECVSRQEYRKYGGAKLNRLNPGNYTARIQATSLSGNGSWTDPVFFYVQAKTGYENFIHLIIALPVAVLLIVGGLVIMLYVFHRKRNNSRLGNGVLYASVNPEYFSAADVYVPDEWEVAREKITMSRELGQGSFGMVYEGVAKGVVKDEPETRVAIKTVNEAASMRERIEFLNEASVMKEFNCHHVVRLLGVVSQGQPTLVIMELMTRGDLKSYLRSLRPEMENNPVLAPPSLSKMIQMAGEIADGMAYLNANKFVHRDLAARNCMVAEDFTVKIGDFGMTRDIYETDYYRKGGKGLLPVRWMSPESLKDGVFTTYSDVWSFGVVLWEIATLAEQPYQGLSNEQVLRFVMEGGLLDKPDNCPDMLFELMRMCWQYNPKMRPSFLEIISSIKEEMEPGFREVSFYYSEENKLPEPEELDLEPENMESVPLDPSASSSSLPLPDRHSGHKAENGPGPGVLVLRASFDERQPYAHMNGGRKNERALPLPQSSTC
Experimental: IGF-1 and HER2/neu receptors were partially purified by WGA chromatography of cells overexpressing the protein of interest. To isolate IGF-1R, CHO cells transfected with and overexpressing the human IGF-1R (CHOIGF-1R) were plated in T-150 flasks and grown in DMEM supplemented with 10% fetal calf serum (FCS) until 80% confluent. Cells were harvested in the basal state and solubilized in 50 mM HEPES, 10% glycerol, 1% Triton X-100, 150 mM NaCl, 5 μM EGTA, 0.24 mg/ml aminoethyl-benzensulfonyl fluoride (AEBSF), 10 μg/ml aprotinin, 25 mM benzamidine, 10 μg soybean trypsin inhibitor, and 5 μg/ml leuptin for one hour at 4° C. Samples were centrifuged for 60 minutes at 100,000 g and solubilized extract collected. Rodent HER2/neu receptors were collected from MCNeuA cells crown under identical conditions and processed similarly. Lysates from both cell lines were loaded onto a 1 ml wheat germ agglutin (WGA) column (Pharmacia, Piscataway, N.J.), washed with WGA buffer (50 mM HEPES pH 7.6, 150 mM NaCl, 0.1% Triton X-100, 1 mg/ml bacitracin, and 1 mM PMSF). Receptors were then eluted with WGA buffer supplemented with 0.3 N N-Acetyl-D-glucosamine. WGA fractions containing RTK of interest were determined by SDS page and a western blot that employed antibodies against either the IGF-1R or HER2/neu as appropriate. […]

Akt = test: IGF-stimulated Akt phosphorylation in neuroblastoma cells; assay type: cell-based, human; conditions: SH-SY5Y and SHEP cells
Experimental: Detection of phospho-Akt and phospho-Erk. […] Then, some cultures were treated with 10 nM IGF-I for 15 min. Cultures were immediately placed on ice, the medium was removed, and the cells were lysed in modified RIPA buffer (20 mM Tris, 150 mM NaCl, 1 mM EDTA, 1 mM EGTA, 1% Triton X-100, 0.1% sodium dodecyl sulfate, and 1% deoxycholate). Fifty μg of protein from each sample were separated via SDS-PAGE and transfened to nitrocellulose. Phospho- and total-Akt and -Erk were detected by immunoblotting.

PDGF receptor = conditions: Domin et al. 1994; cited from earlier work
MCF-7/HER2-18 cells = test: Growth of MCF-7/HER2-18 cells with RTK inhibitors, 6 days (CyQuant); assay type: cell-based, human; conditions: read-out: one half maximal effect on growth
Experimental: MCF-7/neo or MCF-7/HER2-18 cells were plated in 96 well plates (4×10^3 cells/well) in 100 μl/well of DMEM-10 medium. […] Media with inhibitors was refreshed on day 3 and the cultures were harvested on day 6. The plates were inverted onto paper towels with gentle blotting to remove growth medium without disrupting adherent cells. Each plate was kept at −80° C. until assayed for cell growth. After thawing the plate at room temperature, 200 μl of CyQuant GR solution was added to each well and the plates were incubated in the dark for five minutes. Fluorescence was measured with a SpectraMax Gemini XS fluorescence microplate reader (Molecular Devices) with 480-nm excitation and 520-nm emission.

IGF-1 = IGF-1 activation in pancreatic cancer cells; assay type: cell-based
MCNeuA tumor cells = test: Growth of MCNeuA tumors in neuTg mice; assay type: in vivo, mouse; conditions: combined oral 100 mg/kg and i.p. 37.5 mg/kg groups, from 21 days post-implantation
Description: All animal studies complied with protocols approved by of the Institutional Animal Care and Use Committee of the University of California, San Francisco. Our syngeneic model studies utilized the FVB/N-TgN(MMTVneu)202 mouse strain developed by Muller and colleagues (Guy CT, Webster MA, Schaller M, Parsons TJ, Cardiff RD, Muller WJ: Expression of the neu protooncogene in the mammary epithelium of transgenic mice induces metastatic disease. Proc Natl Acad Sci USA 89:10578-10582, 1992). This strain, denoted hereafter as neuTg, expresses the wild-type rat neu proto-oncogene (a homologue of human HER2) under the control of the mouse mammary tumor virus (MMTV) long terminal repeat (LTR) on an FVB mouse background. The MCNeuA mammary carcinoma cell line employed in these studies was derived from a spontaneously arising tumor in a neuTg female mouse (Campbell MJ, Wollish WS, Lobo […] LJ: Epithelial and fibroblast cell lines derived from a spontaneous mammary carcinoma in a MMTV/neu transgenic mouse. In Vitro Cell Dev Biol Anim 38:326-333, 2002). These cells are tumorigenic when transplanted back into neuTg mice. […] This solution was kept warm at 37° C. until given to mice by i.p. injection. […] Tumor growth was measured at the time of drug delivery on alternate treatment days with calipers and volume calculated using the equation: (length×width^2)*(π/6). […]

Q: What does the source list for `CC(Cc1ccc(O)c(O)c1)C(C)Cc1ccc(O)c(O)c1` (stereo not drawn) [NDGA, nordihydroguaiaretic acid]?
A: IGF-I induced increase in motility (SH-SY5Y and SHEP cells): strongly suppressed; lowest concentration reducing IGF-1 stimulated tyrosine phosphorylation of poly Glu4:Tyr1 (IGF-1R; NDGA 20 minutes prior to 10 nM IGF-1): 0.3 µM; concentration inhibiting IGF-1-stimulated tyrosine kinase activity of isolated IGF-1R (IGF-1R; summary statement): ≤ 10 µM; IGF-stimulated Akt phosphorylation (Akt): dose-dependent inhibition; activation of the PDGF receptor (PDGF receptor): inhibits; IC50 (MCF-7/HER2-18 cells; Homo sapiens, 144 h): 12.5 µM; IC50 (MCF-7/HER2-18 cells): 10 to 20 µM; IGF-1 activation (IGF-1): inhibiting; tumor growth (MCNeuA tumor cells): significantly reduced

From patent US8143226B2, “Tyrosine kinase receptor antagonists and methods of treatment for breast cancer” (The Regents of the University of California, priority 2005, dated 2012)
